Patent publication US8071383B2, “D-amino acid selection for soybean” (BASF Plant Science GmbH, priority 2006, dated 2011)

Tests used:
Assay type in all cases: cell-based, Glycine max
soybean explants = assay: SELDA selection and co-cultivation hormones, transformation efficiency; conditions: for Ave TE (%) / Confirmed events / TE range (%): vector RLM407, D-serine selection
Procedure: In the first experiment, the experimental design included 10 repetitions over time (cutting experiments by 3 researchers) with 4 different co-cultivation media (treatments) per repetition and a minimum of 50 explants per treatment. Solid co-cultivation was prepared as stated earlier except the hormone, BAP, was replaced with one of the 4 following hormones: 7.5 μM BAP, 1.0 μM kinetin, 5.0 μM kinetin, or 7.5 μM kinetin. In the second experiment, the experimental design included 3 repetitions over time (cutting experiments by 1 researcher) with 5 different co-cultivation media (treatments) per repetition and a minimum of 50 explants per treatment. Solid co-cultivation was prepared by replacing BAP with one of the 5 following hormones: 7.5 μM BAP, 1.0 μM kinetin, 3 μM kinetin, 5 μM kinetin, or 7 μM kinetin.
For both experiments, explants were prepared, inoculated with 50 mL of liquid co-cultivation medium containing SHA017/pSB1 carrying vector RLM407 for 30 minutes, and then randomly placed onto 1 of 4 or 5 solid co-cultivation media treatments, respectively. The protocol was followed as stated above with the D-serine selection regime: one week on shoot induction without selection, 3 weeks on shoot induction medium with 7.5 mM D-serine, then 5 mM D-serine throughout shoot elongation. Only one shoot per explant was removed to eliminate regeneration of clones. Putative transformants were confirmed for the presence of the dsda gene using quantitative PCR (TaqMan) and the transformation efficiency (TE) was calculated using the formula: [(number of dsda positive TaqMan confirmed independent events/total number of explants inoculated (n))*100].

[1] = tested on: soybean primary node explants inoculated with REW008; assay: D-alanine and D-alanine/D-serine killing curves using primary node explants; conditions: for D-alanine Kill Curve-regeneration (%) after 3 weeks on SIM: Experiment 1; for D-alanine + 7.5 mM D-serine Kill Curve-regeneration (%) after 3 weeks on SIM: Experiment 2
Procedure: Kill curves for D-alanine selection with and without 7.5 mM D-serine were conducted for future experiments using dao1 as a selectable marker gene. The combination of using D-alanine and D-serine was also performed for the dao1 gene which can metabolize both D-alanine and D-serine. The binary plasmids RET019 (Pactin-dao1, Pubi-gus) and REW008 (Pnos-bar, Pubi-gus) were used as a positive and a negative control, respectively, and the T-DNA mobilized into soybean using Agrobacterium rhizogenes strain SHA017pSB1.
Explants were inoculated with Agrobacterium, co-cultivated for 5 days, then moved onto shoot induction medium with or without selection for one week. After that time, explants were transferred onto new SIM with selection.
In experiment 1, D-alanine was added to the SIM medium at the following concentrations: 0, 3, 7.5, 10, 20, 30, and 50 mM.
In experiment 2, D-alanine was added in the same concentrations with 7.5 mM D-serine.
The experimental design was as follows: T(treatment)1: 7 explants inoculated with REW008 with 1 week recovery; T2: 7 explants inoculated with REW008 with no recovery; The results of the experiment are shown in Table 2b. […] This drop was not seen on explants with recovery until 20 mM D-alanine. When in combination with D-serine, the explants do have reduced regeneration at lower concentrations, between 7.5 and 10 mM.

[2] = tested on: non-Agrobacterium infected soybean axillary meristem explants; assay: Killing curve for D-serine toxicity on non-inoculated seedling axillary meristem explants; conditions: 60 mM D-serine in SIM, 4 weeks
Procedure: Killing curves for D-serine toxicity on non-Agrobacterium infected soybean tissues were performed on axillary meristem explants. Thirty explants were prepared as described above in example 1 and cultured on SIM containing either 0 mM, 3 μM, 30 μM, 300 μM, 3 mM, 30 mM, or 60 mM D-serine for a total of 4 weeks. After this time, the percent of explants with new shoot primordia, i.e. appearance of multiple shoots, were counted. In this experiment, a reduction in regeneration occurred between 3 and 30 mM and only 30% regeneration on explants exposed to 60 mM D-serine was seen (FIG. 1).

[3] = tested on: soybean axillary meristem explants, Dairyland cultivar 98043; assay: Kill curve with D-serine on inoculated axillary meristem explants (shoot induction and elongation)
Procedure: In order to establish an effective level of selection during shoot induction and elongation a broad range of D-Serine concentrations was initially explored. Soybean axillary meristem explants were prepared from 7 day-old-seedlings from the Dairyland cultivar 98043, as described above in Examples 1 and 3.
Agrobacterium rhizogenes strain SHA017 with the Super Vir pSB1 plasmid and containing the binary plasmids pRET017 or pREW008 were prepared as described in example 2. pRET017 contains nosP-c-dsdA/na-nosT and pPcUBI-gusINT-nosT (Example 9). pREW008 contains nosP-bar-nosT and pPcUBI-gusINT-nosT and was used as a control vector (Example 9).
Explants were handled as described above in example 4. After one week on shoot induction medium (SIM) medium with no selection, explants were transferred to SIM medium containing various concentrations of D-serine ranging from 0 to 15 to 30 to 45 mM. All regenerating explants (shoot pads) were transferred to shoot elongation media (SEM) containing 3 mM D-serine after three and six weeks of incubation. Elongating shoots were transferred to rooting medium (RM) medium and screened by GUS expression and Taqman analysis.

[4] = Table 6 (experiment 1), 7.5 uM BAP in co-cultivation medium
[5] = Table 7 (experiment 2), 7.5 uM BAP in co-cultivation medium
[6] = Table 6 (experiment 1), 1 uM Kinetin in co-cultivation medium
[7] = Table 6 (experiment 1), 5 uM Kinetin in co-cultivation medium
[8] = Table 6 (experiment 1), 7.5 uM Kinetin in co-cultivation medium
[9] = Table 7 (experiment 2), 1 uM Kinetin in co-cultivation medium
[10] = Table 7 (experiment 2), 3 uM Kinetin in co-cultivation medium
[11] = Table 7 (experiment 2), 5 uM Kinetin in co-cultivation medium
[12] = Table 7 (experiment 2), 7 uM Kinetin in co-cultivation medium

## c1ccc(CNc2ncnc3nc[nH]c23)cc1 [BAP, 6-benzylaminopurine]
Soybean explants; [4]
  Ave TE (%): 0.4%
  Confirmed events: 3
  TE range (%): 0-2.5%
Soybean explants; [5]
  Ave TE (%): 1.3%
  Confirmed events: 3
  TE range (%): 0-2.5%

## C[C@@H](N)C(=O)O [D-alanine]
[1]; 3 mM D-alanine, T1: REW008 with 1 week recovery
  D-alanine Kill Curve-regeneration (%) after 3 weeks on SIM: 100%
[1]; 3 mM D-alanine, T2: REW008 with no recovery
  D-alanine Kill Curve-regeneration (%) after 3 weeks on SIM: 71%
[1]; 7.5 mM D-alanine, T1: REW008 with 1 week recovery
  D-alanine Kill Curve-regeneration (%) after 3 weeks on SIM: 100%
[1]; 7.5 mM D-alanine, T2: REW008 with no recovery
  D-alanine Kill Curve-regeneration (%) after 3 weeks on SIM: 86%
[1]; 10 mM D-alanine, T1: REW008 with 1 week recovery
  D-alanine Kill Curve-regeneration (%) after 3 weeks on SIM: 100%
[1]; 10 mM D-alanine, T2: REW008 with no recovery
  D-alanine Kill Curve-regeneration (%) after 3 weeks on SIM: 71%
[1]; 20 mM D-alanine, T1: REW008 with 1 week recovery
  D-alanine Kill Curve-regeneration (%) after 3 weeks on SIM: 100%
[1]; 20 mM D-alanine, T2: REW008 with no recovery
  D-alanine Kill Curve-regeneration (%) after 3 weeks on SIM: 27%
[1]; 30 mM D-alanine, T1: REW008 with 1 week recovery
  D-alanine Kill Curve-regeneration (%) after 3 weeks on SIM: 29%
[1]; 30 mM D-alanine, T2: REW008 with no recovery
  D-alanine Kill Curve-regeneration (%) after 3 weeks on SIM: 0%
[1]; 50 mM D-alanine, T1: REW008 with 1 week recovery
  D-alanine Kill Curve-regeneration (%) after 3 weeks on SIM: 0%
[1]; 50 mM D-alanine, T2: REW008 with no recovery
  D-alanine Kill Curve-regeneration (%) after 3 weeks on SIM: 0%
[1]; 3 mM D-alanine + 7.5 mM D-serine, T1: REW008 with 1 week recovery
  D-alanine + 7.5 mM D-serine Kill Curve-regeneration (%) after 3 weeks on SIM: 100%
[1]; 3 mM D-alanine + 7.5 mM D-serine, T2: REW008 with no recovery
  D-alanine + 7.5 mM D-serine Kill Curve-regeneration (%) after 3 weeks on SIM: 100%
[1]; 7.5 mM D-alanine + 7.5 mM D-serine, T1: REW008 with 1 week recovery
  D-alanine + 7.5 mM D-serine Kill Curve-regeneration (%) after 3 weeks on SIM: 100%
[1]; 7.5 mM D-alanine + 7.5 mM D-serine, T2: REW008 with no recovery
  D-alanine + 7.5 mM D-serine Kill Curve-regeneration (%) after 3 weeks on SIM: 71%
[1]; 10 mM D-alanine + 7.5 mM D-serine, T1: REW008 with 1 week recovery
  D-alanine + 7.5 mM D-serine Kill Curve-regeneration (%) after 3 weeks on SIM: 71%
[1]; 10 mM D-alanine + 7.5 mM D-serine, T2: REW008 with no recovery
  D-alanine + 7.5 mM D-serine Kill Curve-regeneration (%) after 3 weeks on SIM: 57%
[1]; 20 mM D-alanine + 7.5 mM D-serine, T1: REW008 with 1 week recovery
  D-alanine + 7.5 mM D-serine Kill Curve-regeneration (%) after 3 weeks on SIM: 57%
[1]; 20 mM D-alanine + 7.5 mM D-serine, T2: REW008 with no recovery
  D-alanine + 7.5 mM D-serine Kill Curve-regeneration (%) after 3 weeks on SIM: 0%
[1]; 30 mM D-alanine + 7.5 mM D-serine, T1: REW008 with 1 week recovery
  D-alanine + 7.5 mM D-serine Kill Curve-regeneration (%) after 3 weeks on SIM: 0%
[1]; 30 mM D-alanine + 7.5 mM D-serine, T2: REW008 with no recovery
  D-alanine + 7.5 mM D-serine Kill Curve-regeneration (%) after 3 weeks on SIM: 14%
[1]; 50 mM D-alanine + 7.5 mM D-serine, T1: REW008 with 1 week recovery
  D-alanine + 7.5 mM D-serine Kill Curve-regeneration (%) after 3 weeks on SIM: 0%
[1]; 50 mM D-alanine + 7.5 mM D-serine, T2: REW008 with no recovery
  D-alanine + 7.5 mM D-serine Kill Curve-regeneration (%) after 3 weeks on SIM: 0%
[1]; explants exposed immediately after co-cultivation
  D-alanine concentration at which the regeneration frequency drops below 70%: 30 mM
[1]; explants with recovery
  D-alanine concentration at which the regeneration frequency drops below 70%: 20 mM

## N[C@H](CO)C(=O)O [D-serine]
[2]
  percent of explants with new shoot primordia (regeneration): 30%
[3]; 3 mM D-Ser in SEM, explants coming from 30 or 45 mM D-Ser during shoot induction
  shoot elongation: no shoot elongation
[3]; D-Ser in SIM 0 mM, RET017
  Percent of explants surviving after three weeks in shoot elongation (SEM) + 3 mM D-serine: 82.8%
[3]; D-Ser in SIM 0 mM, REW008
  Percent of explants surviving after three weeks in shoot elongation (SEM) + 3 mM D-serine: 94.7%
[3]; D-Ser in SIM 15 mM, RET017
  Percent of explants surviving after three weeks in shoot elongation (SEM) + 3 mM D-serine: 74.1%
[3]; D-Ser in SIM 15 mM, REW008
  Percent of explants surviving after three weeks in shoot elongation (SEM) + 3 mM D-serine: 72.1%
[3]; D-Ser in SIM 15 mM, explants inoculated with RET017 (nosP-dsdA)
  Percent of explants regenerating after 3 weeks in shoot induction (SIM) medium: 78.1%
[3]; D-Ser in SIM 15 mM, explants inoculated with REW008 (control vector)
  Percent of explants regenerating after 3 weeks in shoot induction (SIM) medium: 76.9%
[3]; D-Ser in SIM 30 mM, RET017
  Percent of explants surviving after three weeks in shoot elongation (SEM) + 3 mM D-serine: 33.6%
[3]; D-Ser in SIM 30 mM, REW008
  Percent of explants surviving after three weeks in shoot elongation (SEM) + 3 mM D-serine: 34.5%
[3]; D-Ser in SIM 30 mM, explants inoculated with RET017 (nosP-dsdA)
  Percent of explants regenerating after 3 weeks in shoot induction (SIM) medium: 61.2%
[3]; D-Ser in SIM 30 mM, explants inoculated with REW008 (control vector)
  Percent of explants regenerating after 3 weeks in shoot induction (SIM) medium: 55.3%
[3]; D-Ser in SIM 45 mM, RET017
  Percent of explants surviving after three weeks in shoot elongation (SEM) + 3 mM D-serine: 4.9%
[3]; D-Ser in SIM 45 mM, REW008
  Percent of explants surviving after three weeks in shoot elongation (SEM) + 3 mM D-serine: 2.6%
[3]; D-Ser in SIM 45 mM, explants inoculated with RET017 (nosP-dsdA)
  Percent of explants regenerating after 3 weeks in shoot induction (SIM) medium: 25.5%
[3]; D-Ser in SIM 45 mM, explants inoculated with REW008 (control vector)
  Percent of explants regenerating after 3 weeks in shoot induction (SIM) medium: 21.9%
[3]; explants exposed to 15 mM D-Ser during shoot induction
  shoot elongation: Few shoots elongated
[1]; 0 mM D-alanine + 7.5 mM D-serine, T1: REW008 with 1 week recovery
  D-alanine + 7.5 mM D-serine Kill Curve-regeneration (%) after 3 weeks on SIM: 100%
[1]; 0 mM D-alanine + 7.5 mM D-serine, T2: REW008 with no recovery
  D-alanine + 7.5 mM D-serine Kill Curve-regeneration (%) after 3 weeks on SIM: 100%

## c1coc(CNc2ncnc3[nH]cnc23)c1 [Kinetin]
Soybean explants; [6]
  Ave TE (%): 1.4%
  Confirmed events: 10
  TE range (%): 0-6.4%
Soybean explants; [7]
  Ave TE (%): 2.3%
  Confirmed events: 9
  TE range (%): 0-4.2%
Soybean explants; [8]
  Ave TE (%): 2.7%
  Confirmed events: 19
  TE range (%): 0-9.8%
Soybean explants; [9]
  Ave TE (%): 3.7%
  Confirmed events: 8
  TE range (%): 1.3-8.1%
Soybean explants; [10]
  Ave TE (%): 2.5%
  Confirmed events: 6
  TE range (%): 2.3-2.7%
Soybean explants; [11]
  Ave TE (%): 1.8%
  Confirmed events: 4
  TE range (%): 1.2-3%
Soybean explants; [12]
  Ave TE (%): 2.2%
  Confirmed events: 5
  TE range (%): 0-5.2%
Soybean explants; both experiments
  average transformation efficiency with kinetin in the co-cultivation media compared with BAP: higher average transformation efficiencies
